target: T1, human GPR84 receptor (Homo sapiens, UniProt Q9NQS5); test: Gαi biosensor BRET assay in HEK293 cells (antagonism of ZQ-16); format: cell-based; conditions: HEK293, single concentration 2 μM (designated A)
T1 construct: host or cells: HEK293, transient transfection
Outline: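 HEK293 cells transiently expressing human GPR84, Gαi2-Rluc8, GFP10-Gγ2 and Gβ1, in Tyrode's buffer pH 7.5. Compounds preincubated 5 min at 37° C, then 200 nmol/L ZQ-16 for 5 min at room temperature; coelenterazine 400A 5 μmol/L. BRET2 acceptor/donor ratio, background- and vehicle-corrected net BRET.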

T1 sequence (Q9NQS5 whole entry): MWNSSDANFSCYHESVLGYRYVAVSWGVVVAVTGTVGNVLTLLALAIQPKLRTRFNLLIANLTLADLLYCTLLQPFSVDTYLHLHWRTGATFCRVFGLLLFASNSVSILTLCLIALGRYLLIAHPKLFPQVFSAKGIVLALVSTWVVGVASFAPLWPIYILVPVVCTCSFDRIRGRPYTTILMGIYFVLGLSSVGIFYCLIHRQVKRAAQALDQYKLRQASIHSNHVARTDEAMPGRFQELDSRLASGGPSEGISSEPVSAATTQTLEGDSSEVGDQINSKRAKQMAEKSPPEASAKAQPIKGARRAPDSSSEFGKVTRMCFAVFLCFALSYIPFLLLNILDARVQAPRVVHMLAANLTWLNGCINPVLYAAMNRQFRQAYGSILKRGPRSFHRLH

SMILES	inhibition at 2 µM [%]
COC1CCN(c2ccc(-c3cn(CC4CCCCO4)nn3)c(C)c2)C1 (stereo not shown) [Compound I-463]	≤ 25
Cc1ccc(C#CC2CC2)nc1-c1cn(Cc2ccccn2)nn1 [Compound I-480]	≤ 25
Cc1ccc(C#CC2CC2)nc1-c1cn(Cc2ncccn2)nn1 [Compound I-481]	≤ 25

Continued, values first:

inhibition at 2 µM [%]	SMILES
25 to 50	CCc1ccc(C#CC2CC2)cc1Cc1cn(CC2CCCCO2)nn1 (stereo not shown) [Compound I-475]
≤ 25	CCc1c(C#CC2CC2)cccc1Cc1cn(CC2CCCCO2)nn1 (stereo not shown) [Compound I-476]
≤ 25	Cc1cc(C#CC2CC2)ccc1-c1cn(CC2CC(F)(F)CO2)nn1 (stereo not shown) [Compound I-489]
50 to 75	CC(C)Oc1cc(C#CCN2CC(C)(C)C2)cnc1-c1cn(C[C@H]2CCCCO2)nn1 [Compound I-498]
≤ 25	Cc1c(-c2cn(CC3CCCCO3)nn2)ccc(C#CC2CC2)c1F (stereo not shown) [Compound I-505]

same assay, conditions: HEK293, single concentration 10 μM (designated F)

SMILES	inhibition at 10 µM [%]
Cc1ccc(C#CCN2CC(C)(C)C2)cc1Cc1cn(CC2CCCCO2)nn1 (stereo not shown) [Compound I-415]	25 to 50
Cc1cc(N2CC(C)(C)C2)c(Cl)cc1-c1cn(C[C@H]2CCCCO2)nn1 [Compound I-421]	> 75
COc1cc(-c2cn(C[C@H]3CCCCO3)nn2)c(C)cc1N1CC(C)(C)C1 [Compound I-422]	≤ 25
COC1CCCN(c2ccc(-c3cn(CC4CCCCO4)nn3)c(C)c2)C1 (stereo not shown) [Compound I-428]	25 to 50
Cc1cc(N2CC3(CN(Cc4ccccn4)C3)C2)ccc1-c1cn(CC2CCCCO2)nn1 (stereo not shown) [Compound I-429]	25 to 50
Cc1cc(N2C3CCC2CN(Cc2ccccn2)C3)ccc1-c1cn(CC2CCCCO2)nn1 (stereo not shown) [Compound I-430]	25 to 50
Cc1cc(Cl)c(N2CC(C)(C)C2)cc1-c1cn(C[C@H]2CCCCO2)nn1 [Compound I-431]	≤ 25
Cc1cc(C#CCn2cc(-c3ccccc3)nn2)ccc1-c1cn(CC2CCCCO2)nn1 (stereo not shown) [Compound I-432, 1-(3-(3-methyl-4-(1-((tetrahydro-2H-pyran-2-yl)methyl)-1H-1,2,3-triazol-4-yl)phenyl)prop-2-ynyl)-4-phenyl-1H-1,2,3-triazole]	> 75
COC1CCN(c2ccc(-c3cn(CC4CCCCO4)nn3)c(C)c2)CC1 (stereo not shown) [Compound I-437]	25 to 50
Cc1cc(C(=O)n2ccc(N)n2)ccc1-c1cn(CC2CCCCO2)nn1 (stereo not shown) [Compound I-438]	25 to 50
COCC1(C)CN(c2ccc(-c3cn(CC4CCCCO4)nn3)c(C)c2)C1 (stereo not shown) [Compound I-439]	25 to 50
Cc1cc(C2CCN(Cc3ccccn3)CC2)ccc1-c1cn(CC2CCCCO2)nn1 (stereo not shown) [Compound I-440]	≤ 25
Cc1ccc(N2CC(C)(C)C2)cc1Cc1cn(CC2CCCCO2)nn1 (stereo not shown) [Compound I-443]	≤ 25
Cc1ccc(OCc2ccccn2)cc1Cc1cn(CC2CCCCO2)nn1 (stereo not shown) [Compound I-444]	≤ 25
Cc1cc(N2CCCC(CO)C2)ccc1-c1cn(CC2CCCCO2)nn1 (stereo not shown) [Compound I-446]	25 to 50
CC(=O)NCC1(C)CN(c2ccc(-c3cn(CC4CCCCO4)nn3)c(C)c2)C1 (stereo not shown) [Compound I-447]	25 to 50
Cc1cc(N2CC(C)(CNS(C)(=O)=O)C2)ccc1-c1cn(CC2CCCCO2)nn1 (stereo not shown) [Compound I-448]	50 to 75
Cc1cc(N2CCCC(O)C2)ccc1-c1cn(CC2CCCCO2)nn1 (stereo not shown) [Compound I-450]	25 to 50
Cc1cc(C#CC2CC2)cnc1-c1cn(Cc2ncccn2)nn1 [Compound I-453]	≤ 25
Cc1cc(C#CC2CC2)ccc1-c1cn(CC2OCCO2)nn1 [Compound I-457]	≤ 25
Cc1cc(C#CC2CC2)ccc1-c1cn(CC2CNC(=O)O2)nn1 (stereo not shown) [Compound I-458]	≤ 25
CC(C)c1cc(N2CC(C)(C)C2)cnc1-c1cn(CC2CCCCO2)nn1 (stereo not shown) [Compound I-461]	> 75
Cc1cc(OC2CN3CCC2CC3)ccc1-c1cn(CC2CCCCO2)nn1 (stereo not shown) [Compound I-465]	≤ 25

SMILES	inhibition at 10 µM [%]
Cc1cc(N2CC3CCC(C2)N3Cc2ccccn2)ccc1-c1cn(CC2CCCCO2)nn1 (stereo not shown) [Compound I-466]	≤ 25
Cc1ccccc1-c1cn(CC2CCCCO2)nn1 (stereo not shown) [Compound I-467]	≤ 25
Cc1cc(CO)ccc1-c1cn(CC2CCCCO2)nn1 (stereo not shown) [Compound I-468]	25 to 50
Cc1noc(COc2ccc(-c3cn(CC4CCCCO4)nn3)c(C)c2)n1 (stereo not shown) [Compound I-469]	≤ 25
Cc1cc(N2CC(C)(N(C)C)C2)ccc1-c1cn(CC2CCCCO2)nn1 (stereo not shown) [Compound I-470]	≤ 25
Cc1cc(N2CCCC2)ccc1-c1cn(CC2CCCCO2)nn1 (stereo not shown) [Compound I-472]	25 to 50
Cc1cc(C#CCN2CC(C)(C)C2)cnc1-c1cn(Cc2ncccn2)nn1 [Compound I-473]	≤ 25
Cc1cc(N2CC(C(C)(C)O)C2)ccc1-c1cn(CC2CCCCO2)nn1 (stereo not shown) [Compound I-477]	50 to 75
Cc1cc(C2CCN(Cc3ccccn3)CC2)cnc1-c1cn(CC2CCCCO2)nn1 (stereo not shown) [Compound I-482]	≤ 25
Cc1cc(NC(=O)c2ccccc2)ccc1-c1cn(CC2CCCCO2)nn1 (stereo not shown) [Compound I-483]	≤ 25
COC(=O)N1CCC(c2ccc(-c3cn(CC4CCCCO4)nn3)c(C)c2)CC1 (stereo not shown) [Compound I-484]	≤ 25
Cc1cc(N2CC(NS(C)(=O)=O)C2)ccc1-c1cn(CC2CCCCO2)nn1 (stereo not shown) [Compound I-486]	≤ 25
Cc1cc(N2CC(N(C)S(C)(=O)=O)C2)ccc1-c1cn(CC2CCCCO2)nn1 (stereo not shown) [Compound I-487]	≤ 25
Cc1ccccc1-c1cn(CC#Cc2ccc(-c3cn(CC4CCCCO4)nn3)c(C)c2)nn1 (stereo not shown) [Compound I-488]	50 to 75
Cc1cccc(-c2cn(CC#Cc3ccc(-c4cn(CC5CCCCO5)nn4)c(C)c3)nn2)c1 (stereo not shown) [Compound I-492]	> 75
Cc1cc(C#CC2CC2)ccc1-c1cn(CC2CN(C)C(=O)O2)nn1 (stereo not shown) [Compound I-493]	≤ 25
Cc1ccc(C#CC2CC2)cc1-n1nc(CC2CC(F)(F)CCO2)oc1=O (stereo not shown) [Compound I-494, 3-(5-(cyclopropylethynyl)-2-methylphenyl)-5-((4,4-difluorotetrahydro-2H-pyran-2-yl)methyl)-1,3,4-oxadiazol-2(3H)-one]	> 75
CCc1cc(N2CC(C)(CO)C2)cnc1-c1cn(CC2CC(C)(C)CO2)nn1 (stereo not shown) [Compound I-500]	> 75
CC(C)Oc1cc(N2CC(C)(CO)C2)cnc1-c1cn(CC2CC(C)(C)CO2)nn1 (stereo not shown) [Compound I-501]	> 75
CC(C)Oc1cc(C#CC2CC2)cnc1-c1cn(Cc2ncccn2)nn1 [Compound I-502]	> 75
Cc1cc(N2CCC(Cc3ccccn3)CC2)cnc1-c1cn(CC2CCCCO2)nn1 (stereo not shown) [Compound I-503]	> 75
Cc1cc(C2CCN(Cc3ccccn3)CC2)cnc1Cc1cn(CC2CCCCO2)nn1 (stereo not shown) [Compound I-504]	≤ 25
CNC1(C)CN(c2ccc(-c3cn(CC4CCCCO4)nn3)c(C)c2)C1 (stereo not shown) [Compound I-506]	50 to 75

The next lines start with the values.

inhibition at 10 µM [%]	SMILES
25 to 50	CC(c1cn(CC2CCCCO2)nn1)c1cccc(C#CC2CC2)n1 (stereo not shown) [Compound I-416]
25 to 50	Cc1ccc(C#CC2CC2)cc1Cc1nnnn1CC1CCCCO1 (stereo not shown) [Compound I-419]
50 to 75	Cc1cc(C#CC2CC2)cnc1-c1cn(CC2CC(C)(C)O2)nn1 (stereo not shown) [Compound I-420]
25 to 50	CC(c1cccc(C#CCN2CC(C)(C)C2)c1)c1cn(CC2CCCCO2)nn1 (stereo not shown) [Compound I-425]
25 to 50	CC(c1cncc(C#CC2CC2)c1)c1cn(CC2CCCCO2)nn1 (stereo not shown) [Compound I-426]
25 to 50	C=C(c1cncc(C#CC2CC2)c1)c1cn(CC2CCCCO2)nn1 (stereo not shown) [Compound I-427]
≤ 25	Cc1cc(C#CC2CC2)nnc1-c1cn(CC2CCCCO2)nn1 (stereo not shown) [Compound I-433]
≤ 25	Cc1cc(-c2cn(CC3CCCCO3)nn2)nnc1C#CC1CC1 (stereo not shown) [Compound I-434]
≤ 25	Cc1cc(N2CC(C)(C)C2)c(C#CC2CC2)cc1-c1cn(C[C@H]2CCCCO2)nn1 [Compound I-435]
≤ 25	Cc1cc(N2CCC(O)C2)ccc1-c1cn(CC2CCCCO2)nn1 (stereo not shown) [Compound I-436]
50 to 75	Cc1cc(N2CCC(CO)CC2)ccc1-c1cn(CC2CCCCO2)nn1 (stereo not shown) [Compound I-445]
25 to 50	Cc1cc(N2CCC(O)CC2)ccc1-c1cn(CC2CCCCO2)nn1 (stereo not shown) [Compound I-449]
> 75	Cc1cc(N2CC(CO)C2)ccc1-c1cn(CC2CCCCO2)nn1 (stereo not shown) [Compound I-471]
≤ 25	Cc1ccc(C#CC2CC2)nc1-c1cn(CC2CCCCO2)nn1 (stereo not shown) [Compound I-479]
≤ 25	Cc1cc(C2CCOCC2)ccc1-c1cn(CC2CCCCO2)nn1 (stereo not shown) [Compound I-485]
> 75	COC(c1cccc(C#CC2CC2)c1)c1cn(CC2CCCCO2)nn1 (stereo not shown) [Compound I-490]
≤ 25	COC(c1cccc(C#CCO)c1)c1cn(CC2CCCCO2)nn1 (stereo not shown) [Compound I-491]
25 to 50	Cc1cc(N2CC(C)(C#N)C2)ccc1-c1cn(CC2CCCCO2)nn1 (stereo not shown) [Compound I-495]
25 to 50	CC(O)(c1cccc(C#CC2CC2)c1)c1cn(CC2CCCCO2)nn1 (stereo not shown) [Compound I-496]
25 to 50	Cc1cc(C#CC2CC2)ccc1-c1cn(CC2CC(F)(F)CCO2)nn1 (stereo not shown) [Compound I-497]
25 to 50	COC1CN(c2ccc(-c3cn(CC4CCCCO4)nn3)c(C)c2)C1 (stereo not shown) [Compound I-507]

same assay, conditions: HEK293 cells, antagonism of 200 nmol/L ZQ-16

SMILES	IC50 [nM]
Cc1cc(N2C3CCC2CN(Cc2ccccn2)C3)ccc1-c1cn(CC2CCCCO2)nn1 (stereo not shown) [Compound I-430]	300 to 1000
Cc1cc(C#CCn2cc(-c3ccccc3)nn2)ccc1-c1cn(CC2CCCCO2)nn1 (stereo not shown) [Compound I-432, 1-(3-(3-methyl-4-(1-((tetrahydro-2H-pyran-2-yl)methyl)-1H-1,2,3-triazol-4-yl)phenyl)prop-2-ynyl)-4-phenyl-1H-1,2,3-triazole]	300 to 1000
Cc1ccccc1-c1cn(CC#Cc2ccc(-c3cn(CC4CCCCO4)nn3)c(C)c2)nn1 (stereo not shown) [Compound I-488]	≤ 300
Cc1cccc(-c2cn(CC#Cc3ccc(-c4cn(CC5CCCCO5)nn4)c(C)c3)nn2)c1 (stereo not shown) [Compound I-492]	≤ 300
CCc1cc(N2CC(C)(CO)C2)cnc1-c1cn(CC2CC(C)(C)CO2)nn1 (stereo not shown) [Compound I-500]	1000 to 3000
CC(C)Oc1cc(N2CC(C)(CO)C2)cnc1-c1cn(CC2CC(C)(C)CO2)nn1 (stereo not shown) [Compound I-501]	1000 to 3000
CC(C)Oc1cc(C#CC2CC2)cnc1-c1cn(Cc2ncccn2)nn1 [Compound I-502]	1000 to 3000

Continued, values first:

IC50 [nM]	SMILES
> 3000	C=C(c1cncc(C#CC2CC2)c1)c1cn(CC2CCCCO2)nn1 (stereo not shown) [Compound I-427]
300 to 1000	COC(c1cccc(C#CC2CC2)c1)c1cn(CC2CCCCO2)nn1 (stereo not shown) [Compound I-490]
300 to 1000	CC(C)Oc1cc(C#CCN2CC(C)(C)C2)cnc1-c1cn(C[C@H]2CCCCO2)nn1 [Compound I-498]

Source: patent publication US12617777B2, “GPR84 antagonists and uses thereof” (Liminal BioSciences Limited, priority 2021, dated 2026)
